Reference: ChEMBL document CHEMBL3864190, “Discovery of Pyrazolopyrimidine Derivatives as Novel Dual Inhibitors of BTK and PI3Kδ” (ACS Med Chem Lett, 2016)

Assays:
[1] = biological target: T1, Phosphatidylinositol 4,5-bisphosphate 3-kinase catalytic subunit delta isoform (Homo sapiens) (UniProt O00329); assay: Inhibition of PI3Kdelta (unknown origin) using biotinylated PIP2 as substrate at 100 nM in presence of streptavidin-APC by FRET assay
T1 sequence (whole entry): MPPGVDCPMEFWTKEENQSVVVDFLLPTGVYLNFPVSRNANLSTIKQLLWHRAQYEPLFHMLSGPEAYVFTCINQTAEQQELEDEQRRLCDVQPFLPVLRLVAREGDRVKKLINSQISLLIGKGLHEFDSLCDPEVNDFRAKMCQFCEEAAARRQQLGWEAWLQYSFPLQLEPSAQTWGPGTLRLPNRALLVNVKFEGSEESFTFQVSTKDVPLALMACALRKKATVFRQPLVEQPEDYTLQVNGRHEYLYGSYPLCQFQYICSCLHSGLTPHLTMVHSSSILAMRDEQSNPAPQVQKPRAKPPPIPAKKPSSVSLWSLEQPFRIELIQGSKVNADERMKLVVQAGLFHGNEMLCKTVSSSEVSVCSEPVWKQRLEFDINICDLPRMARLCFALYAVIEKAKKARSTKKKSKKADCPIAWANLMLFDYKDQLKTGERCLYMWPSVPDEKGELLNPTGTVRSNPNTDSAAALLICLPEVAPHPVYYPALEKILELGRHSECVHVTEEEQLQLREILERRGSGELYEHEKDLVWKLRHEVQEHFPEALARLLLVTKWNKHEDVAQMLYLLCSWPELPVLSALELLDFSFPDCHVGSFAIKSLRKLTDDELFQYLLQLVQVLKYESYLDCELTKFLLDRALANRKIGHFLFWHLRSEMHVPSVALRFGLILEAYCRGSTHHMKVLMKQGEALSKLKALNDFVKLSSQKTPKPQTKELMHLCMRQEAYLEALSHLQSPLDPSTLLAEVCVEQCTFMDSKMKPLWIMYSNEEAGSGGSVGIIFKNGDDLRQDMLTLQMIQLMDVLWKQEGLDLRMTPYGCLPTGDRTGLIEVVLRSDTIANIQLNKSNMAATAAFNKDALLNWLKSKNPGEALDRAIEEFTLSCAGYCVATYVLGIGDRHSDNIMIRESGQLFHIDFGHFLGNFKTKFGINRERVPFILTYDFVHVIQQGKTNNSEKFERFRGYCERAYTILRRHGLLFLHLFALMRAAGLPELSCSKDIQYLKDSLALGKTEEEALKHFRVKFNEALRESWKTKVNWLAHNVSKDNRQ

[2] = Drug metabolism in mouse liver microsomes assessed as UGT-mediated compound glucuronidation by measuring parent compound remaining at 5 uM after 30 mins in presence of UDPGA by LC-MS/MS analysis; format: ADME; conditions: liver microsomes, read-out: Stability
[3] = biological target: T2, Tyrosine-protein kinase BTK (Homo sapiens, UniProt Q06187); conditions: at 100 nM
[4] = biological target: T3, Phosphatidylinositol 4,5-bisphosphate 3-kinase catalytic subunit delta isoform (Homo sapiens, UniProt O00329); assay: Inhibition of PI3Kdelta (unknown origin) using biotinylated PIP2 as substrate in presence of streptavidin-APC by FRET assay
T3 sequence (O00329 whole entry): T1 sequence (whole entry)

[5] = biological target: T2, Tyrosine-protein kinase BTK
[6] = Clearance in mouse plasma at 5 mg/kg, iv or 15 mg/kg, po by HPLC/MS analysis; format: ADME, organism-based
[7] = Apparent volume of distribution in mouse plasma at 5 mg/kg, iv or 15 mg/kg, po by HPLC/MS analysis; format: ADME, organism-based; conditions: read-out: Vz
[8] = AUC in mouse plasma at 15 mg/kg, po by HPLC/MS analysis; format: ADME, organism-based
[9] = Half life in mouse plasma at 15 mg/kg, po by HPLC/MS analysis; format: ADME, organism-based
[10] = Oral bioavailability in mouse plasma at 15 mg/kg by HPLC/MS analysis; format: ADME, organism-based
[11] = Drug metabolism in mouse liver microsomes assessed as compound oxidation by measuring parent compound remaining at 1 uM after 30 mins in presence of NADPH by LC-MS/MS analysis; format: ADME; conditions: liver microsomes, read-out: Stability
[12] = Drug metabolism in human liver microsomes assessed as compound oxidation by measuring parent compound remaining at 1 uM after 30 mins in presence of NADPH by LC-MS/MS analysis; format: ADME; conditions: liver microsomes, read-out: Stability
[13] = Drug metabolism in human liver microsomes assessed as UGT-mediated compound glucuronidation by measuring parent compound remaining at 5 uM after 30 mins in presence of UDPGA by LC-MS/MS analysis; format: ADME; conditions: read-out: Stability
Homo sapiens [14] = species: Homo sapiens; assay: Selectivity ratio of IC50 for PI3Kalpha (unknown origin) to IC50 for PI3Kdelta (unknown origin)
Homo sapiens [15] = species: Homo sapiens; assay: Selectivity ratio of IC50 for PI3Kbeta (unknown origin) to IC50 for PI3Kdelta (unknown origin)
Homo sapiens [16] = species: Homo sapiens; assay: Selectivity ratio of IC50 for PI3Kgamma (unknown origin) to IC50 for PI3Kdelta (unknown origin)
Homo sapiens [17] = species: Homo sapiens; assay: Selectivity ratio of IC50 for human BMX to IC50 for human BTK
Homo sapiens [18] = species: Homo sapiens; assay: Selectivity ratio of IC50 for human TEC to IC50 for human BTK

T2 sequence (Q06187 whole entry, canonical isoform): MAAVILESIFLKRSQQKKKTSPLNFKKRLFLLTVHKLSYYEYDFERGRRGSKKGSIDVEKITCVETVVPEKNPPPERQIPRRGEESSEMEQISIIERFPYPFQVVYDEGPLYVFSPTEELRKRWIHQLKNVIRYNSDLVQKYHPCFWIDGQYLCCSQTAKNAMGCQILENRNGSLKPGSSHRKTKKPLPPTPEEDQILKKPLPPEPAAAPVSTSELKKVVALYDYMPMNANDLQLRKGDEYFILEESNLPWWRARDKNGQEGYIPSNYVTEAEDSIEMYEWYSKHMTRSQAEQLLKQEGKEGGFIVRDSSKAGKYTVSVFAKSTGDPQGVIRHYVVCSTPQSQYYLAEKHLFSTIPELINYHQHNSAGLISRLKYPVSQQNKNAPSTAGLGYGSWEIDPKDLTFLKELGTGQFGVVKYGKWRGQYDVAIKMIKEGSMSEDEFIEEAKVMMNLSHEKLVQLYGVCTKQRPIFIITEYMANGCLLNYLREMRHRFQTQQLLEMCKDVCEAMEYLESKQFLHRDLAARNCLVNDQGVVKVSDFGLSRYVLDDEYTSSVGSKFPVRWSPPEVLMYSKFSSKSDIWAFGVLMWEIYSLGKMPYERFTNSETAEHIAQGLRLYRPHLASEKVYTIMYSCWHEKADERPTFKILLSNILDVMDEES

SMILES | inhibition [1] [%] | remaining at 0.5 h, 5 µM [2] [%] | inhibition [3] [%] | IC50 [4] [nM] | IC50 [5] [nM] | other results
COc1ccc(-c2nn(C3Cc4ccccc4C3)c3ncnc(N)c23)cc1N | 14 | 89 | 72 | – | – | –
Nc1ncnc2c1c(-c1cccc(O)c1)nn2C1Cc2ccccc2C1 | 41 | – | 66 | – | – | –
Nc1ncnc2c1c(-c1cc(O)c(F)c(F)c1)nn2C1Cc2ccccc2C1 | 87 | 5.1 to 7.1 | 74 | 3 | – | clearance [6]: 154 mL/min/kg; Vd [7]: 12.1 L/kg; AUC [8]: 0.073 µM·h; half-life [9]: 57 min; bioavailability [10]: 1.7%; remaining at 0.5 h, 1 µM [11]: 78%; remaining at 0.5 h, 1 µM [12]: 75%; remaining at 0.5 h, 5 µM [13]: 3.7%
Nc1ncnc2c1c(-c1ccc3[nH]cnc3c1)nn2C1Cc2ccccc2C1 | – | 90 | – | – | – | –
Cc1ccccc1-n1c(Cn2nc(-c3cc(O)cc(F)c3)c3c(N)ncnc32)nc2cccc(C)c2c1=O | – | – | – | – | > 10000 | –
Cc1ccc(-c2nn(C3Cc4ccccc4C3)c3ncnc(N)c23)cc1O | – | – | – | 172 | 43 | –
Nc1ccc2c(c1)CC(n1nc(-c3cc(F)c4c(c3)NCCO4)c3c(N)ncnc31)C2 (single isomer, unassigned; (-)) | – | – | – | – | – | Ratio IC50 (Homo sapiens [14]): 17; Ratio IC50 (Homo sapiens [15]): 44; Ratio IC50 (Homo sapiens [16]): 7; Ratio IC50 (Homo sapiens [17]): 1; Ratio IC50 (Homo sapiens [18]): 7
Nc1ncnc2c1c(-c1ccc3cc[nH]c3c1)nn2C1Cc2ccccc2C1 | 24 | – | 46 | – | – | –
Nc1ncnc2c1c(-c1ccc3nc[nH]c3c1)nn2C1Cc2ccccc2C1 | 78 | – | 9.6 | – | – | –
Nc1ncnc2c1c(-c1cc(F)c3c(c1)NCCO3)nn2C1Cc2ccccc2C1 | 53 | 91 | 52 | – | – | –

The next lines start with results.

inhibition [1] [%] | remaining at 0.5 h, 5 µM [2] [%] | inhibition [3] [%] | IC50 [4] [nM] | IC50 [5] [nM] | SMILES | other results
– | – | – | 55 | 176 | Nc1ccc2c(c1)CC(n1nc(-c3cc(F)c4c(c3)NCCO4)c3c(N)ncnc31)CC2 (single isomer, unassigned; (+)) | –
– | – | – | 72 | 19 | Nc1ccc2c(c1)CC(n1nc(-c3cc(F)c4c(c3)NCCO4)c3c(N)ncnc31)CC2 (single isomer, unassigned; (-)) | –
52 | – | 34 | – | – | Nc1ncnc2c1c(-c1cc(F)c3c(c1)NCCO3)nn2C1CCc2ccccc2C1 (racemic) | –
